In patent US5183828A, “Polyhydroxybenzoic acid derivatives” (priority 1990, dated 1993):
Several values for one entry are separate records, joined by “and”; a condition that tells them apart may be missing. Equal values may be shown once.

Legend:
Δ^5-lipoxygenase = molecular target: T1, Δ^5-lipoxygenase (Rattus norvegicus, UniProt P12527); experiment: ability to inhibit Δ^5-lipoxygenase; assay type: biochemical; settings: RBL-1 cell supernatant
T1 construct: supernatant fraction of lysed rat basophilic leukemia (RBL-1) cells; endogenous in cells; host or cells: RBL-1 cells, 49,000 g supernatant of homogenate
T1 sequence (P12527 1-673): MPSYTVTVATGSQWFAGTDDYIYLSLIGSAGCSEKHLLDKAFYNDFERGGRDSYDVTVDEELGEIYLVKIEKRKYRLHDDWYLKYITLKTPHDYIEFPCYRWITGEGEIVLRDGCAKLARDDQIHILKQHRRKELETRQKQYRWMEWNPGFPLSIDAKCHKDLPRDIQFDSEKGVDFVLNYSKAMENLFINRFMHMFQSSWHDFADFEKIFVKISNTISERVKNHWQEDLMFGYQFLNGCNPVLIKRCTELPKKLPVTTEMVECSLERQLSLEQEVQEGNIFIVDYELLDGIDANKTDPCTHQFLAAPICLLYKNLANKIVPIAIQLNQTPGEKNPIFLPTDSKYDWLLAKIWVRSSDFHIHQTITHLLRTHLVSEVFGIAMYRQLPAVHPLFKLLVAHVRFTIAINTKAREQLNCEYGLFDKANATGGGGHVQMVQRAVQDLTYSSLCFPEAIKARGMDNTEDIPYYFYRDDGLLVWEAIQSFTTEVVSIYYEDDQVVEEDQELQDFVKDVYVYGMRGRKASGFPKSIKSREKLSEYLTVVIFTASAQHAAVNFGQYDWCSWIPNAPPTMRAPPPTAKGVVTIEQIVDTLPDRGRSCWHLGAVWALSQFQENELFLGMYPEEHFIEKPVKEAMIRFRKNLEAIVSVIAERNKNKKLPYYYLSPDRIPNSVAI
Method: This enzyme is believed to initiate the synthesis of slow reacting substance of […]), an important mediator in the pathogenesis of asthma. Thus, a drug capable of inhibiting this enzyme would also help to prevent asthmatic attacks. In this determination, Δ^5 -lipoxygenase was derived from the supernatant fraction of lysed rat basophilic leukemia (RBL-1) cells. […] The Δ^5 -lipoxygenase was derived from RBL-1 cells which were lysed by homogenization in ice-cold buffer (50 mM Tris-HCl buffer, pH 7.2, containing 1 mM EDTA and 14 uM indomethacin). The homogenate was centrifuged at 4 ° C. at 49,000 g for 20 min and the resulting supernatant fraction was used as the source of Δ^5 -lipoxygenase. The enzyme was assayed at 37° using 6.7 uM (0.39 uCi/ml) [1-14C]arachidonic acid as the substrate in 50 mM Tris-HCl buffer, pH 7.2, containing 1 mM gluthatione, 3 mM CaCl2, 14 uM indomethacin, and 0.25 to 0.50 mM EDTA. […] The effect of compounds on Δ^5 -lipoxygenase activity was determined by preincubating the enzyme for 10 min at 30° in the presence or absence of various concentrations of the drug prior to addition of substrate.

[1] = system: arachidonic acid induced ear edema; experiment: arachidonic acid induced ear edema assay, Table 10; assay type: in vivo, Mice; settings: Experiment 1, 2 mg total dose, topical; for Mean Increase in Weight of Inflammed Ear (± S.E.): positive control 17.0 ± 0.6, p = .000
Method: The compounds of this invention because of their ability to scavenge free-radicals in vivo are capable of modulating inflammation as set forth in the following protocol: Mice received the test compound topically to each side of the right ear one hr prior to the inflammatory challenge, at which time they were challenged (except for the negative control) with 10 microliter of a 2 mg/20 microliter solution of arachidonic acid applied to each side of the right ear. One hour post-challenge, the animals were sacrificed, the right ears removed, and an 8 mm disc punched from each. These discs were then weighed. The following table gives the results of this experiment.

[2] = free radical scavenging ability (destruction of diphenylpicrylhydrazyl), Table 7; settings: 100 μM diphenylpicrylhydrazyl in acetone; test compound 25 μM, 2.5 μM (footnote)
From the text: It is believed that the antineoplastic activity of the compounds of this invention is due in parts to their ability to scavenge free-radicals. Additionally, the compounds of this invention are cancer protective agents and this utility also may be a manifestation of their free-radical scavenging capability. Free-radical scavenging agents may also be useful in detoxifying mammals in whom an excess of free radicals is a cause and/or result of the toxicity. Other possible uses of free radical scavengers are to inhibit protaglandin transformation, leucotriene interconversion and lipogenesis, to act as inflammatory modulators and as food additive or preservatives to prevent lipid oxidation. The free radical scavenging ability of the compounds of the invention was determined by measuring the destruction of the stable free radical, diphenylpicrylhydrazyl, in the presence of the test compound in a manner similar to that reported by […] and Herzmann, Naturwiss, 47, 133-134 (1960). […] The test compound was added at a final concentration of 25 μM and the rate of reduction of absorpotion at […] was observed. Table 7 below gives the free radical scavenging abilities of the compounds of this invention expresses as the initial rate of decrease in optical density units/min.

L1210 leukemia = experiment: antitumor activity in L1210 leukemia (percent increase in survival time), Table 2; assay type: in vivo, mice; settings: 8 days
Method: Testing of the compounds of this invention against L-1210 lymphoid leukemia were carried out as follows: L-1210 leukemia was maintained by weekly passage of 10^5 L-1210 cells intraperitoneally into DBA/2 mice. Diluted ascitic fluid, 0.1 ml. (10^5 cells), was administered ip to female B6D2 F1 mice weighing about 20 g. Drugs were administered ip 24 hours after tumor transplantation and injections were continued daily for a total of eight days. A group of control mice receiving only the injection medium were maintained. Table 2 which follows gives the antitumor activity against L-1210 leukemia for certain compounds of this invention. In the table, column 1 gives the name of the compound, column 2 the dose in mg./kg., and column 3 the percent increase in survival time over controls at each dose level.

P-388 = experiment: antileukemia activity of nitriles vs P-388, Table 8; assay type: in vivo
From the text: (§1) Table 8 which follows gives anti-tumor data vs L-1210 and P-388 leukemia for these novel nitriles.

L1210 = experiment: antileukemia activity of nitriles vs L1210, Table 8; assay type: in vivo
From the text: as §1

P388 Leukemia = experiment: activity vs P388 leukemia (T/C % survival time), Table 6; assay type: in vivo, mice; settings: five treatments, >130 significant
Method: The following protocol was used:
CDF1 mice were injected ip with 10^6 cells The drug was administered in the first day after tumor inoculation and continued daily for five treatments. The mean survival time of the treated group compared to the non-treated control group equals T/C×100=T/C percent.

L-1210 Leukemia = experiment: activity vs L-1210 leukemia (T/C % survival time), Table 3; assay type: in vivo, mice; settings: >130 significant, hydrochloride
From the text: 3,4-Dihydroxybenzamidoxime and 3,4,5-trihydroxybenzamidoxime were subjected to a further series of tests against various transplanted tumors in mice according to the following protocols:
For L-1210 lymphoid leukemia, 20 grams CDF1 or BDF1 mice […] ip with 10^5 leukemia cells. The drug was given one day after tumor inoculation continued for an additional eight days. The mean survival time for the treated animal was compared to that of the control group. In the table, column 1 gives the name of the compound, column 2 the dose levels, and column 3 treated over control percent survival time. (In other words, a figure of 175 indicates a 75% increase in survival time.)

For `Cl.N=C(N)c1cc(O)c(O)c(O)c1` [3,4,5-trihydroxybenzamidine.HCl, 3,4,5-trihydroxybenzamidine-HCl], the inhibition at 10 µM (Δ^5-lipoxygenase) was 75%, the “Percent Inhibition vs. positive control” value [1] was 24% and the “Mean Increase in Weight of Inflammed Ear (± S.E.)” value [1] was 13.0 ± 0.3 mg. For the same compound, the “initial rate of decrease in optical density (518 nm)” value [2] was 4.912 units/min, the ILS at 200 mg/kg (L1210 leukemia; Mus musculus, L1210, 192 h, 200 mg/kg ip daily) was 43.5% and the ILS at 300 mg/kg (L1210 leukemia; Mus musculus, L1210, 192 h, 300 mg/kg ip daily) was 10.2%.
In the case of `N#Cc1cc(O)c(O)c(O)c1` [3,4,5-trihydroxybenzonitrile], the “% Increase in Survival Time” value (P-388; 50 mg/kg) is reported as 15% and 20%, the “% Increase in Survival Time” value (P-388; 200 mg/kg) is reported as 26% and 39% and the “% Increase in Survival Time” value (P-388; 400 mg/kg) is reported as 26%. The “% Increase in Survival Time” value (L1210; 118 mg/kg) was 34.0% and the “% Increase in Survival Time” value (L1210; 157 mg/kg) was 28.0%.
In the case of `Cl.NC(=NO)c1cc(O)c(O)c(O)c1` [3,4,5-trihydroxybenzamidoxime.HCl, 3,4,5-Trihydroxybenzamidoxime hydrochloride], the inhibition at 1 µM (Δ^5-lipoxygenase; 1 uM) is reported as 24%, the inhibition at 10 µM (Δ^5-lipoxygenase) is reported as 90% and the “Percent Inhibition vs. positive control” value [1] is reported as 44%. The “Mean Increase in Weight of Inflammed Ear (± S.E.)” value [1] was 9.5 ± 0.3 mg, the “initial rate of decrease in optical density (518 nm)” value [2] was 0.929 units/min and the “T/C % (mean survival time)” value (P388 Leukemia; 50 mg/kg daily, hydrochloride) was 142% and 138% and 141%. The “T/C % (mean survival time)” value (P388 Leukemia; 100 mg/kg daily, hydrochloride) was 150% and 154% and 138% and 148%, the “T/C % (mean survival time)” value (P388 Leukemia; 200 mg/kg daily, hydrochloride) was 155% and 177% and the “T/C % (mean survival time)” value (P388 Leukemia; 300 mg/kg daily) was 163%. For the same compound, the “T/C % (mean survival time)” value (P388 Leukemia; 400 mg/kg daily) was “toxic”, the “% Increase in Survival Time” value (L1210 leukemia; 196 mg/kg ip daily) was “toxic” and the ILS at 59 mg/kg (L1210 leukemia; Mus musculus, L1210, 192 h, 59 mg/kg ip daily) was 90%. The ILS at 132 mg/kg (L1210 leukemia; Mus musculus, L1210, 192 h, 132 mg/kg ip daily) was 54.5%, the ILS at 220 mg/kg (L1210 leukemia; Mus musculus, L1210, 192 h, 220 mg/kg ip daily) was 63.6% and the ILS at 275 mg/kg (L1210 leukemia; Mus musculus, L1210, 192 h, 275 mg/kg ip daily) was 30.6%. For the same compound, the “t/c % (mean survival time)” value (L-1210 Leukemia; 25 mg/kg) was 136% and 121%, the “t/c % (mean survival time)” value (L-1210 Leukemia; 50 mg/kg) was 138% and 137% and the “t/c % (mean survival time)” value (L-1210 Leukemia; 100 mg/kg) was 152% and 137%. For the same compound, the “t/c % (mean survival time)” value (L-1210 Leukemia; 200 mg/kg) was 212% and 182%.
